Measurements taken from US11291719B2, “Methods and compositions for modulating Akt3” (Augusta University Research Institute, Inc., priority 2016, dated 2022).

Key:
[1] = system: CD4+ and CD8+ T cells; assay: Proliferation (VCT, flow cytometry) of activated CD4+ and CD8+ T cells; format: cell-based, mouse; conditions: 72 hrs, anti-CD3, IL2 and anti-CD28
Procedure: (§1) FACS-sorted nTregs, CD4+ and CD8+ T cells from C57BL/6J(foxp3-GFP) were plated on anti-CD3-coated plates and cultured in activation media (IL2 and anti-CD28) without inhibitors (Stimulated) and with inhibitors (JJ64-E) for 72 hrs. For negative control (Non-stimulated-NS) cells were left in media containing IL-2 for 72 hrs. After 72 hrs Proliferation (level of VCT) in live gated cells was measured by flow cytometry.

[2] = system: TC-1 tumor; assay: TC-1 tumor growth and survival, alone or with vaccine; format: in vivo, mouse; conditions: high dose as monotherapy, lower dose combined with vaccine
Procedure: C57BL/6 mice (n=5/group) were injected s.c. in the right flank with 7×10^4 TC-1 cells. Mice from appropriate groups were injected weekly with vaccine (s.c.) or DMSO 5% as a control. Mice were also treated with vaccine (weekly) along with either 10 mg/kg or 20 mg/kg of JJ64-E injected (i.p.) every day starting on day 6 after tumor implantation throughout the experiment.
FIGS. 5B and 5C are bar diagrams showing average tumor volumes of mice for each group. FIG. 5D is a Kaplan-Meier plot of the overall survival. Statistical significance was determined by Log-rank (Mantel-Cox) test.
(§2) Statistical significance was determined by one-way ANOVA with Tukey's multiple comparison test (*, p<0.05; **, p<0.01; ***, p<0.001).
C57BL/6 mice (n=5/group) were injected s.c. in the right flank with 7×10^4 TC-1 cells. Mice from appropriate groups were injected weekly with vaccine (s.c.) or DMSO 5% as a control. Mice were also treated with vaccine (weekly) along with either 10 mg/kg or 20 mg/kg of JJ64-C(or FIG. 7A or Formula 18) injected (i.p.) every other day starting on day 6 after tumor implantation throughout the experiment.
FIGS. 7C and 7D are bar diagrams representing average tumor volumes of mice for each group. FIG. 7E is a Kaplan-Meier plot of the overall survival. Statistical significance was determined by Log-rank (Mantel-Cox) test.

[3] = molecular target: T1, Akt3 (Mus musculus, UniProt Q9WUA6); assay: Immunoblot of pAkt3 in activated nTregs; format: cell-based; conditions: 72 hrs
T1 construct: nTreg cell lysates prepared on day 3 (72 hrs) of treatment were separated by SDS-PAGE and immunoblotted; endogenous in cells; host or cells: primary mouse nTregs (C57BL/6J foxp3-GFP)
Procedure: (§3) FACS-sorted natural regulatory T cells (nTregs), from WT C57BL/6J (foxp3-GFP) mice were plated on anti-CD3-coated plates and cultured in activation media (IL2 and anti-CD28) without inhibitors (Stimulated) and with different concentrations of inhibitor 4-[(6-nitroquinolin-4-yl)amino]-N-[4-(pyridin-4-ylamino)phenyl]benzamide (also referred to as JJ64-E) for 72 hrs. For negative control (Non-stimulated-NS) cells were left in media containing IL-2 for 72 hrs. nTreg cell lysates prepared on day 3 (72 hrs) of treatment were separated by SDS-PAGE and immunoblotted with specific antibodies (pAkt1) or pAkt3; actin was used as loading control.

[4] = system: CD8 and other (FoxP3neg) CD4 T cells; assay: TC-1 tumor model: percentage of CD4 and CD8 T cells by flow cytometry; format: in vivo, mouse; conditions: 5 mg/kg or 10 mg/kg i.p. every day from day 10, analysed day 15
Procedure: WT C57BL/6 4-6 weeks old female mice (n=5/group) were injected s.c. in the right flank with 7×10^4 TC-1 cells. Mice from appropriate groups were treated with either 5 mg/kg or 10 mg/kg of JJ64-E injected (i.p.) everyday starting on day 10 after tumor implantation throughout the experiment. All groups were euthanized on day 15 of TC-1 implantation. The percentage of CD4 and CD8 were analyzed in splenic CD4+ cells by flow cytometry.

[5] = molecular target: T2, Akt1 (Mus musculus, UniProt P31750); assay: Immunoblot of pAkt1 in activated nTregs; format: cell-based; conditions: 72 hrs
T2 construct: endogenous in cells; host or cells: primary mouse nTregs (C57BL/6J foxp3-GFP)
Procedure: as §3

[6] = system: nTregs; assay: Proliferation (VCT, flow cytometry) of activated nTregs; format: cell-based, mouse; conditions: 72 hrs, anti-CD3, IL2 and anti-CD28
Procedure: as §1

[7] = system: Tregs (CD4+Foxp3+); assay: TC-1 tumor model: percentage of Tregs by flow cytometry; format: in vivo, mouse; conditions: 5 mg/kg or 10 mg/kg i.p. every day from day 10, analysed day 15
Procedure: WT C57BL/6J mice (n=3/group) were injected s.c. in the right flank with 7×10^4 TC-1 cells. Mice from appropriate groups were treated with either 5 mg/kg or 10 mg/kg of JJ64-E injected (i.p.) every day starting on day 10 after tumor implantation throughout the experiment. All groups were euthanized on day 15 of TC-1 implantation. The percentage of Tregs (CD4+Foxp3+) was analyzed by flow cytometry.
as §2

[8] = system: iTreg induction (CD4+FoxP3+ cells); assay: iTreg induction from CD4+FoxP3- cells with TGF-β (flow cytometry); format: cell-based; conditions: 72 hrs, frequency of CD4+FoxP3+ cells
Procedure: FACS-sorted CD4+FoxP3− cells were plated on anti-CD3-coated plates with soluble IL2 and ant-CD28 with TGF-β (induction) Cell were induced for iTregs with JJ64-B (FIG. 6A) without inhibitor (Induction-IND)) or for 72 hrs. Cells were harvested and the frequency of CD4+FoxP3+ cells was measured by flow cytometry.
FACS-sorted CD4+FoxP3− cells were plated on anti-CD3-coated plates with soluble IL2 and ant-CD28 with TGF-β (induction) Cell were induced for iTregs with JJ64-C (JJ64 modified drug C or Formula 18) or without inhibitor (Induction-IND)) or for 72 hrs. Cells were harvested and the frequency of CD4+FoxP3+ cells was measured by flow cytometry.
FACS-sorted CD4+FoxP3− cells were plated on anti-CD3-coated plates with soluble IL2 and ant-CD28 with TGF-β (induction) Cell were induced for iTregs with JJ64-D (JJ64 modified drug D or FIG. 9A) or without inhibitor (Induction-IND)) or for 72 hrs. Cells were harvested and the frequency of CD4+FoxP3+ cells was measured by flow cytometry.

[9] = JJ64-E i.p. every day from day 6
[10] = JJ64-C i.p. every other day from day 6

T2 sequence (P31750 whole entry): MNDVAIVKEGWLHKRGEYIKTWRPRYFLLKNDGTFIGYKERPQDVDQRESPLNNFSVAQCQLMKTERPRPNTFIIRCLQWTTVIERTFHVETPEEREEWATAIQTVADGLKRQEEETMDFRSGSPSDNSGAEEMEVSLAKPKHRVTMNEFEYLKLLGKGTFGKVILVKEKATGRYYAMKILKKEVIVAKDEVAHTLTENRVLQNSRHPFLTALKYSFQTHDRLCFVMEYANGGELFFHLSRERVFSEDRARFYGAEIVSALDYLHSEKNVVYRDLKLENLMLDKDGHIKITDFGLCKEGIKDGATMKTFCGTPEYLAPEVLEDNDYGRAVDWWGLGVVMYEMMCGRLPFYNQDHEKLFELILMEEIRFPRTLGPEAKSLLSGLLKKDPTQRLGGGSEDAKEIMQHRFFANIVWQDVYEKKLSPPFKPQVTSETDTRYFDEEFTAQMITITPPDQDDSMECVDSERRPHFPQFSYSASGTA
T1 sequence (Q9WUA6 whole entry): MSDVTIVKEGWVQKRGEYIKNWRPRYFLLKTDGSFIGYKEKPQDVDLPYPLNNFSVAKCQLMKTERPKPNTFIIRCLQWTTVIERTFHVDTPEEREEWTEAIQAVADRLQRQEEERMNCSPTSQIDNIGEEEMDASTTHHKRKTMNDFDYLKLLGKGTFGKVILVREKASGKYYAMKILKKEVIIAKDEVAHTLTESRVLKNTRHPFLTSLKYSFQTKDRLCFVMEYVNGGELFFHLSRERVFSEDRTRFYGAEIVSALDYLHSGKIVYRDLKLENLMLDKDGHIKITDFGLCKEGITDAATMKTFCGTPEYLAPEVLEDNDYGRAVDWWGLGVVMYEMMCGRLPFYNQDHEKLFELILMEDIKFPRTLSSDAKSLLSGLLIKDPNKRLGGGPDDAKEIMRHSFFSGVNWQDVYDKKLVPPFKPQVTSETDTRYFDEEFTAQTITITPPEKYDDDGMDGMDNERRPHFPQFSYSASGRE

Structure (SMILES) | proliferation of CD8 and other CD4 T cells [1] | TC-1 tumor growth [2, 9] | survival of TC-1 tumor mice [2, 9] | Akt3 phosphorylation in Tregs [3] | CD8 and other (FoxP3neg) CD4 T cells in TC-1 tumor model [4] | Akt1 phosphorylation in Tregs [5] | Treg proliferation [6] | Tregs in vivo in TC-1 tumor model [7] | TC-1 tumor growth [2, 10] | survival of TC-1 tumor mice [2, 10] | iTreg induction [8]
O=C(Nc1ccc(Nc2ccncc2)cc1)c1ccc(Nc2ccnc3ccc([N+](=O)[O-])cc23)cc1 [Compound 1, 4-[(6-nitroquinolin-4-yl)amino]-N-[4-(pyridin-4-ylamino)phenyl]benzamide] | sparing | inhibits | prolongs | inhibits | does not affect | not | selectively inhibits | decreases |  |  | 
O=C(Nc1cccc(Nc2ccncc2)c1)c1cccc(Nc2ccnc3ccc(F)cc23)c1 [Compound 18] |  |  |  |  |  |  |  |  | inhibits | prolongs | inhibits
